# PMC11240139, “Exploring the antitumor potential of novel quinoline derivatives via tubulin polymerization inhibition in breast cancer; design, synthesis and molecular docking” (RSC Advances, 2024)
# pIC50: −log10 of the molar value.
# Assays:
# MDA-MB-231 cells [1] = test: Cell cycle analysis by flow cytometry (PI); type: cell-based; details: MDA-MB-231, IC50 dose, 24 h; control 10.42%
# Procedure: Propidium Iodide Flow Cytometry Kit for Cell Cycle Analysis (Abcam) was used according to manufacturer's instructions. Briefly, MDA-MB 231 cells (2 × 10^5 cells) were seeded in 6-well plates and cultured for 24 h. […] Cells were collected, washed with PBS and centrifuged. Subsequently, the cells were re-suspended and fixed in 66% ethanol on ice for at least 2 h. The cells were stained with a working solution containing propidium iodide (PI) in the dark at 37 °C for 30 min. DNA content of the cells were measured by flow cytometry using FACSCalibur (BD Biosciences, Mountain View, CA). The data were analyzed using the CellQuest software (BD Biosciences).[21]
# MDA-MB-231 cells [2] = test: Cell apoptosis analysis (annexin V-FITC/PI); type: cell-based; details: MDA-MB-231, IC50 dose, 24 h
# Procedure: Annexin-V-FITC Apoptosis Detection Kit (Biovision, USA) was used to determine apoptotic cells according to manufacturer's instructions. Briefly, MDA-MB 231 cells (2 × 10^5 cells) were seeded in 6-well plates and cultured for 24 h. […] Cells were collected, washed with PBS and centrifuged. The cells were re-suspended in 500 μL of 1× binding buffer. 5 μL of annexin V-FITC and 5 μL of propidium iodide (PI […]) were added and the cells were incubated in the dark at room temperature for 5 min. The fluorescence of the stained cells was analyzed by flow cytometry using FACSCalibur (BD Biosciences, Mountain View, CA). The data were analyzed using the CellQuest software (BD Biosciences).[53,54]
# tubulin = molecular target: T1, tubulin (Sus scrofa, UniProt P02550+P02554); design: method as in PMID 33203182, PMID 36893547, PMID 33730937, PMID 30525584, PMID 30530194; details: Fig. 4; read-out: tubulin inhibition IC50; cited from earlier work
# T1 construct: purchased Cytoskeleton, USA
# T1 sequence (P02554 whole entry): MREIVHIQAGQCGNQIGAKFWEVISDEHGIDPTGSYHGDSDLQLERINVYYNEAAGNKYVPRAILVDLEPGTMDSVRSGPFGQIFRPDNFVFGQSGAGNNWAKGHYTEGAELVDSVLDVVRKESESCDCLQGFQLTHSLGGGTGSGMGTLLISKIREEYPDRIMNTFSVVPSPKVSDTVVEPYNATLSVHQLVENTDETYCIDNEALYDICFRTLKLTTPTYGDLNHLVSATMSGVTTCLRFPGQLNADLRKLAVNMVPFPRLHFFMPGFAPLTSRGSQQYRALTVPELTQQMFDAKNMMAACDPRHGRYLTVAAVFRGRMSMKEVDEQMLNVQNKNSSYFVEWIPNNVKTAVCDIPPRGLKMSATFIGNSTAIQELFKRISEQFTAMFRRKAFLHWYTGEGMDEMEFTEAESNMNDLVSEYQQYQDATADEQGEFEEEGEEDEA
# T1 sequence (P02550 whole entry): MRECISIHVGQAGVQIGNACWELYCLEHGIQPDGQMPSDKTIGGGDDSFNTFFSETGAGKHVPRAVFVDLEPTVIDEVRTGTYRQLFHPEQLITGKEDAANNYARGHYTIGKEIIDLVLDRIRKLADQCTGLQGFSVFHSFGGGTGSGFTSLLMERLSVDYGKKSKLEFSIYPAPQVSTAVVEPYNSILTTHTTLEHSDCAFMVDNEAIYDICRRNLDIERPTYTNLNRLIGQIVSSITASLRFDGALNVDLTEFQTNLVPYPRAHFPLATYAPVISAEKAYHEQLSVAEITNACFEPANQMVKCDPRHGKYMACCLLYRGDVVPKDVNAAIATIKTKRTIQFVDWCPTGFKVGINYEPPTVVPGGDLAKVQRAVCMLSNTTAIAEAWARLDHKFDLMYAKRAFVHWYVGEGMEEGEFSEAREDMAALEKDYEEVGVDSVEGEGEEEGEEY
compound,measurement,setting,value
"COc1cc2c(c(OC)c1OC)-c1ccc(OC)c(=O)cc1[C@@H](NC(C)=O)CC2 [Colchicine, colchicine]",cells population at G2 and M phases,MDA-MB-231 cells [1],26.51%
same,Early Apoptosis (%),MDA-MB-231 cells [2],19.19 ± 0.87%
same,Late Apoptosis (%),MDA-MB-231 cells [2],6.62 ± 0.75%
same,Necrosis (%),MDA-MB-231 cells [2],11.41 ± 2.8%
same,Total Cell Death (%),MDA-MB-231 cells [2],37.22 ± 2.8%
same,Necrosis (%),MDA-MB-231 cells [2]; listed as colchicine,11.41%
COc1cc(C(=O)N/N=C/c2cc3ccc(OC(C)C)cc3nc2OC)cc(OC)c1OC [IX],pIC50,tubulin,5.88
C=C(c1ccc2c(ccn2C)c1)c1cc(C)nc2ccccc12 [XIII],pIC50,tubulin,5.68
COc1ccc2nc(Cl)c(C3CC(c4ccc(N)cc4)=NN3c3ccccc3)cc2c1 (stereo not shown) [XIV],pIC50,tubulin,8.04
COc1ccc(OC)c(/C=C/C(=O)c2ccc(NC(=O)COc3cccc4cccnc34)cc2)c1 [X],pIC50,tubulin,5.27
